Assay [1] deals with NG108-15. Put plainly: Neuroprotective activity against H2O2-induced oxidative stress in mouse/rat NG108-15 cells assessed as increase in cell viability at 10 uM incubated for 2 hrs prior to H2O2 challenge for 2 hrs by MTT assay. It is filed as functional, cell-based. In general terms: Tetrazolium assays rely on reduction of a dye to a coloured formazan, in cell work by metabolically active cells.

The target of another assay is Cholinesterase (Homo sapiens, UniProt P06276).
Sequence of Cholinesterase (P06276 whole entry): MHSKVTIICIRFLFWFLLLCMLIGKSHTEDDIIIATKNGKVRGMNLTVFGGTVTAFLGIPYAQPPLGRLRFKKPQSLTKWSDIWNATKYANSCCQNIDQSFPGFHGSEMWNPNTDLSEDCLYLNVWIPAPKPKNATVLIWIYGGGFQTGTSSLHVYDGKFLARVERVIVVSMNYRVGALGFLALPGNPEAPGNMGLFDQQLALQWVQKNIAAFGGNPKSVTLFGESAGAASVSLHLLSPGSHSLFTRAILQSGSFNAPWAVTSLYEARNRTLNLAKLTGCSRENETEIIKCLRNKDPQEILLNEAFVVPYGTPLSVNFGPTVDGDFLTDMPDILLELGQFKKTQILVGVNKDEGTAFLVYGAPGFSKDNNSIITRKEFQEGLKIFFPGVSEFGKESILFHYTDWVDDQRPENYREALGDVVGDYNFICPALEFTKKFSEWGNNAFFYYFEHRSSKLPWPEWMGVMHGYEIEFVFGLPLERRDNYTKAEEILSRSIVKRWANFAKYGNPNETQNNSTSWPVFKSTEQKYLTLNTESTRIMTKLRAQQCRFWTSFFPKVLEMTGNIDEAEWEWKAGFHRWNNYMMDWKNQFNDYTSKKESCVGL
For another assay, the system named is C6. The assay is described as follows: cells. Particulars: Rattus norvegicus, C6, 24 h, read-out: Activity.
The test system of assay [2] is NG108-15. Put plainly: cells. Particulars: Murinae, NG108-15, read-out: Activity.
Description: Neuroprotective activity against H2O2-induced oxidative stress in mouse/rat NG108-15 cells assessed as cell viability at 100 uM incubated for 2 hrs prior to H2O2 challenge for 2 hrs by MTT assay
For assay [3], the system named is NG108-15. The assay is described as follows: Neuroprotective activity against H2O2-induced oxidative stress in mouse/rat NG108-15 cells assessed as increase in cell viability at 1 uM incubated for 2 hrs prior to H2O2 challenge for 2 hrs by MTT assay. The class given is functional, cell-based.
For assay [4], the system named is Mus musculus. Put plainly: Inhibition of scopolamine-induced cognitive deficit in ICR mouse assessed as spontaneous alternation behaviour at 50 micromol/kg, ip administered 1 hr prior to scopolamine challenge measured after 30 mins by Y-maze test (reference value: 40.22 +/-3.54%). It is filed as functional. The arrangement: scale not given: the % may be the effect or the level left.

Assay [5] concerns Mus musculus. The assay is described as follows: Inhibition of scopolamine-induced cognitive deficit in ICR mouse assessed as spontaneous alternation behaviour at 25 micromol/kg, ip administered 1 hr prior to scopolamine challenge measured after 30 mins by Y-maze test (reference value: 40.22 +/-3.54%). The arrangement: scale not given: the % may be the effect or the level left. It is filed as functional.

For assay [6], the system named is Mus musculus. Put plainly: Inhibition of scopolamine-induced cognitive deficit in ICR mouse assessed as time spent swimming in Q1 quadrant at 50 micromol/kg, ip administered 1 hr prior to scopolamine challenge measured after 30 mins by morris water maze test (reference value: 11.76 +/-0.49s). The class given is functional.
The subject of assay [7] is Mus musculus. The assay is described as follows: Inhibition of scopolamine-induced cognitive deficit in ICR mouse assessed as time spent swimming in Q1 quadrant at 25 micromol/kg, ip administered 1 hr prior to scopolamine challenge measured after 30 mins by morris water maze test (reference value: 11.76 +/-0.49s). The class given is functional.

Activity calls are given as the source filed them. No cut-off for these calls is given here.

Description for C6: Neuroprotective activity against Abeta1-42 peptide-induced neurotoxicity in rat C6 cells assessed as cell viability at 100 uM after 24 hrs by MTT assay
Description for Cholinesterase: Inhibition of BuChE in human serum using butyrylthiocholine iodide as substrate measured every 30s for 5 mins by Ellman's spectrophotometric method

What is called IC50 is the concentration that inhibits the measured activity by half. On to `CC(C)=CCc1c(O)c(/C=N/CCCCCNc2c3c(nc4ccccc24)CCCC3)cc2c1[nH]c1ccccc12`, for which the result in the assay on NG108-15 [1] was Active. Half-maximal inhibition against Cholinesterase (IC50) required 19.4 µM. The results for the viability at 100 µM with C6 and in the assay with NG108-15 [2] were 59.4% and 68.8%, respectively.
Take `COc1ccc2c(c1)[nH]c1c(CC=C(C)C)c(O)c(/C=N/CCCCCNc3c4c(nc5ccccc35)CCCC4)cc12`: the result with NG108-15 [3] was Active. In addition, the Activity with Mus musculus [4] is on record as 59.8%; in the assay with Mus musculus [5], 53.88%. The Time is 17.86 s in the assay on Mus musculus [6] and 17.21 s in the assay on Mus musculus [7]. In addition, the midpoint of inhibition against Cholinesterase, the IC50, lay at 52.1 µM. In addition, the viability at 100 µM worked out at 66.3% in the assay with C6 and 78.4% in the assay on NG108-15 [2].
For `CC(C)=CCc1c(O)c(C=O)cc2c1[nH]c1ccccc12` [HEPTAPHYLLINE], the IC50 against Cholinesterase is above 100 µM. Further, the viability at 100 µM in the assay with NG108-15 [2] came to 59.8%.
With `COc1ccc2c(c1)[nH]c1c(CC=C(C)C)c(O)c(/C=N/CCCNc3c4c(nc5ccccc35)CCCC4)cc12`, the result with NG108-15 [3] was Active. For the same compound, the results for the viability at 100 µM with C6 and with NG108-15 [2] were 63% and 74.7%, respectively.
Turning to `COc1ccc2c(c1)[nH]c1c(CC=C(C)C)c(O)c(C=O)cc12`, at Cholinesterase, the IC50 is above 100 µM. The viability at 100 µM in the assay with NG108-15 [2] was 65.5%.

The record behind these values is ChEMBL document CHEMBL3124749, “Synthesis, biological evaluation and molecular modeling study of novel tacrine-carbazole hybrids as potential multifunctional agents for the treatment of Alzheimer's disease” (Eur J Med Chem, 2014).
